Twelve compounds from patent US4383113A, “Agricultural sulfonamides” (E. I. Du Pont de Nemours and Company, priority 1981, dated 1983) can be followed below.

For experiment [1], the system named is nutsedge. Description: Test A pre-emergence. In kind it is in vivo, Cyperus rotundus. The conditions noted are these: 0.4 kg/ha. An excerpt: The activity of these compounds was discovered in a number of greenhouse and field tests. The ratings are based on a numerical scale extending from 0=no effect, to 10=maximum effect. The accompanying descriptive symbols have the following meanings:
Seeds of crabgrass (Digitaria spp.), barnyardgrass (Echinochloa crusgalli), wild oats (Avena fatua), cassia (Cassia tora), morningglory (Ipomoea spp.), cocklebur (Xanthium spp.), sorghum, corn, soybean, rice, wheat and nutsedge tubers (Cyperus rotundus) were planted in a growth medium and treated preemergence with a nonphytotoxic solvent solution of the compounds of Table XII. Other batches of seeds and tubers for all of the foregoing weed and crop plants were planted at the same time as controls. The control plantings were untreated; i.e., neither any compound nor any solvent was applied. At the same time, cotton having five leaves (including cotyledonary ones), bush beans with the third trifoliate leaf expanding, crabgrass with two leaves, barnyardgrass with two leaves, wild oats with two leaves, cassia with three leaves (including cotyledonary ones), morningglory with four leaves (including the cotyledonary ones), cocklebur with four leaves (including the cotyledonary ones), sorghum with four leaves, corn with four leaves, soybean with two cotyledonary leaves, rice with three leaves, wheat with one leaf, and nutsedge with three-five leaves were sprayed with a nonphytotoxic solvent solution of the compounds of Table XII. Other groups of all the same weed and crop plants were sprayed with the same nonphytotoxic solvent so as to provide control plants. Preemergence and postemergence treated plants and controls were maintained in a greenhouse for sixteen days, then all treated plants were compared with their respective controls and rated visually for response to treatment.

Experiment [2] relates to cassia. The experiment can be described thus: Test A pre-emergence. The conditions noted are these: 0.4 kg/ha. Type of experiment: in vivo, Cassia tora. The arrangement: key: 0 = no effect, 10 = maximum effect; letter = response symbol. The essentials:
(§1)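 Seeds and tubers were treated preemergence in a growth medium with compound in a nonphytotoxic solvent, against untreated controls; emerged plants such as two-leaf barnyardgrass and five-leaf cotton were sprayed postemergence, against solvent-sprayed controls. After sixteen days in a greenhouse, response was rated visually from 0 to 10.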

Experiment [3] relates to rice. Description: Test A pre-emergence. The conditions noted are these: 0.4 kg/ha. In kind it is in vivo. The arrangement: key: 0 = no effect, 10 = maximum effect; letter = response symbol. The method in brief: as §1
Experiment [4] deals with wheat. The experiment can be described thus: Test A pre-emergence. Type of experiment: in vivo. The arrangement: key: 0 = no effect, 10 = maximum effect; letter = response symbol. Particulars: 0.4 kg/ha. The essentials: as §1
In experiment [5] the test system is sorghum. Description: Test A pre-emergence. The conditions noted are these: 0.4 kg/ha. The arrangement: key: 0 = no effect, 10 = maximum effect; letter = response symbol. Type of experiment: in vivo. The method in brief: as §1
Experiment [6] relates to barnyardgrass. Description: Test A pre-emergence. Type of experiment: in vivo, Echinochloa crusgalli. The arrangement: key: 0 = no effect, 10 = maximum effect; letter = response symbol. Particulars: 0.4 kg/ha. The method in brief:
as §1

For experiment [7], the system named is cocklebur. The experiment can be described thus: Test A pre-emergence. In kind it is in vivo, Xanthium spp. The arrangement: key: 0 = no effect, 10 = maximum effect; letter = response symbol. Particulars: 0.4 kg/ha. The method in brief: as §1
The test system of experiment [8] is wild oats. Description: Test A pre-emergence. Type of experiment: in vivo, Avena fatua. The arrangement: key: 0 = no effect, 10 = maximum effect; letter = response symbol. Particulars: 0.4 kg/ha. The essentials: as §1
Experiment [9] deals with crabgrass. Description: Test A pre-emergence. In kind it is in vivo, Digitaria spp. The arrangement: key: 0 = no effect, 10 = maximum effect; letter = response symbol. The conditions noted are these: 0.4 kg/ha. The method in brief: as §1
Experiment [10] relates to morningglory. The experiment can be described thus: Test A pre-emergence. In kind it is in vivo, Ipomoea spp. The arrangement: key: 0 = no effect, 10 = maximum effect; letter = response symbol. Particulars: 0.4 kg/ha. The method in brief: as §1
Experiment [11] has as its system soybean. The experiment can be described thus: Test A pre-emergence. Type of experiment: in vivo. The arrangement: key: 0 = no effect, 10 = maximum effect; letter = response symbol. Particulars: 0.4 kg/ha. The method in brief:
as §1

In experiment [12] the test system is corn. Description: Test A pre-emergence. The arrangement: key: 0 = no effect, 10 = maximum effect; letter = response symbol. The conditions noted are these: 0.4 kg/ha. In kind it is in vivo. The method in brief:
as §1

Experiment [13] deals with purple nutsedge. Description: Test F tuber/soil spray. Type of experiment: in vivo, Cyperus rotundus. From the text: (§2) Purple nutsedge tubers (Cyperus rotundus) were planted about 2 cm deep in Fallsington silt loam contained in plastic pots 10 cm in diameter. Five tubers were put in each pot. Compounds of this invention were sprayed dissolved in a non-phytotoxic solvent at a volume rate of 560 l/ha. in four different methods of treatment, i.e., soil surface spray, tuber/soil spray, soil incorporated and post-emergence. For the soil surface spray, the compounds were sprayed on the firmed soil surface immediately after planting. For the tuber/soil spray, the compounds were sprayed on the exposed tubers and subtending soil before the untreated covering soil was added. Soil incorporation treatments were mixed in the covering soil. Post-emergence treatments were sprayed on the nutsedge foliage and surrounding soil surface after the nutsedge had emerged and had reached the height of about 12 cm.
(§3) Immediately after spraying the surface spray, tuber/soil spray and soil incorporated treatments were misted with about 0.3 cm of water over a 90 minute period and then placed in the greenhouse. Post-emergence treatments were placed directly into the greenhouse and watered carefully so that treatments would not be washed from the foliage.

Experiment [14] concerns purple nutsedge. Description: Test F soil incorporated. Type of experiment: in vivo, Cyperus rotundus.
Description: as §2, §3

Experiment [15] deals with purple nutsedge. The experiment can be described thus: Test F soil surface spray. Type of experiment: in vivo, Cyperus rotundus.
Description: as §2, §3

Experiment [16] has as its system purple nutsedge. Description: Test F post-emergence. In kind it is in vivo, Cyperus rotundus.
Description: as §2, §3

Turning to `COc1cc(OC)nc(NC(=O)NS(=O)(=O)c2ccccc2C(=O)OC2CCCCC2)n1` [drawing 498], the response rating worked out at 5G in experiment [1]; 3G in experiment [2]; 9H in experiment [3]; 3G in experiment [4]; 8G in experiment [5]; 9H in [6]. Also, the response rating in experiment [7] came to 8G; in experiment [8], 5G; in [9], 0; in [10], 8G.

As to `CCCC(OC(=O)c1ccccc1S(=O)(=O)NC(=O)Nc1nc(C)nc(OC)n1)C(C)C` (centres unmarked) [drawing 525], the response rating in [1] is given as 5G; in experiment [2], 8G; in [11], 9H; in experiment [3] it was 9H; in experiment [4], 3G; in [12], 8G. In addition, the response rating worked out at 9H in [6]; 8G in [7]; 5G in experiment [8]; 0 in experiment [9]; 9G in [10].

Consider `COC(=O)c1cc(Cl)ccc1S(=O)(=O)NC(=O)Nc1nc(OC)nc(OC)n1` [drawing 603], for which the “response rating after 4 weeks” value in experiment [13] (.008 kg/ha) turned out to be 4G; in [13] (.032 kg/ha), 7G; in experiment [13] (.125 kg/ha), 9G; in experiment [14] (.008 kg/ha) it was 5G; in experiment [14] (.032 kg/ha) it was 7G; in experiment [14] (.125 kg/ha), 9G. Further, the “response rating after 4 weeks” value stood at 3G in experiment [15] (.008 kg/ha); 7G in experiment [15] (.032 kg/ha); 9G in experiment [15] (.125 kg/ha); 3G in [16] (.008 kg/ha); 10C in [16] (.125 kg/ha).

Turning to `COc1nc(NC(=O)NS(=O)(=O)c2ccccc2C(=O)OC2CCCCC2)nc(OC)n1` [drawing 499], the response rating is given as 0 in experiment [1]; 2C in experiment [2]; 2C in experiment [11]; 5G in experiment [3]; 2G in [4]; 8G in experiment [5]. Further, the response rating was 9H in experiment [6]; 9C in experiment [7]; 2G in experiment [8]; 0 in [9]; 9G in [10].

Regarding `CCCCCCCCCCOC(=O)c1ccccc1S(=O)(=O)NC(=O)Nc1nc(C)nc(OC)n1` [drawing 497], the response rating in [1] was found to be 2G; in [11], 0; in experiment [3], 0; in experiment [4], 0; in [12], 4G; in experiment [5] it was 3G. Besides, the response rating in experiment [6] is on record as 0; in experiment [8], 0; in experiment [9], 2G; in experiment [10], 0.

In the case of `COC(=O)c1cc(Cl)ccc1S(=O)(=O)NC(=O)Nc1nc(C)cc(OC)n1` [drawing 604], the “response rating after 4 weeks” value came out at 7G in experiment [13] (.008 kg/ha); 7G in experiment [14] (.008 kg/ha); 9G in experiment [15] (.032 kg/ha); 9C in experiment [16] (.032 kg/ha); 9C in experiment [16] (.125 kg/ha).

With `COc1nc(C)nc(NC(=O)NS(=O)(=O)c2ccccc2C(=O)OC2CCCC2)n1` [drawing 512], the response rating in [1] worked out at 9G; in [2], 8G; in experiment [11], 9H; in experiment [3] it was 9H; in experiment [4], 4G; in experiment [6], 9H. For the same compound, the response rating in [7] is on record as 9G; in [8] it was 4G; in [9], 6G; in [10] it was 9G.

As to `COC(=O)c1ccccc1S(=O)(=O)NC(=O)Nc1nnc(C)c(C)n1` [drawing 597], the “response rating after 4 weeks” value was 2G in experiment [13] (.032 kg/ha); 3G in experiment [14] (.032 kg/ha); 2G in [15] (.032 kg/ha); 0 in [16] (.032 kg/ha); 9C in experiment [16] (.125 kg/ha); 10C in [16] (.5 kg/ha).

Take `COc1nc(NC(=O)NS(=O)(=O)c2ccccc2C(=O)OC(C)C)nc(OC)n1` [drawing 600]: the “response rating after 4 weeks” value in experiment [13] (.004 kg/ha) amounted to 7G; in experiment [13] (.008 kg/ha) it was 8G; in [14] (.004 kg/ha), 8G; in experiment [14] (.008 kg/ha) it was 8G; in experiment [15] (.004 kg/ha), 8G; in experiment [15] (.008 kg/ha), 8G. Moreover, the “response rating after 4 weeks” value in experiment [16] (.004 kg/ha) came out at 8C; in experiment [16] (.008 kg/ha), 9C; in experiment [16] (.016 kg/ha) it was 9C; in experiment [16] (.032 kg/ha), 10C.

For `COC(=O)c1ccccc1S(=O)(=O)NC(=O)Nc1ncccn1` [drawing 596], the “response rating after 4 weeks” value in [13] (.032 kg/ha) was 2G; in experiment [14] (.032 kg/ha) it was 0; in experiment [15] (.032 kg/ha) it was 0; in [16] (.032 kg/ha), 0; in [16] (.125 kg/ha), 9C.

On to `COC(=O)c1ccccc1S(=O)(=O)NC(=O)N(C)c1nc(C)cc(C)n1` [drawing 486], for which the response rating in experiment [1] is listed as 0; in [2] it was 0; in experiment [11], 0; in experiment [3], 8H; in experiment [4], 4H; in experiment [12], 3G. Further, the response rating in experiment [5] came out at 4G; in experiment [6], 2G; in [8] it was 0; in experiment [9] it was 3G; in experiment [10], 0.

For the compound `CCCCCCCCCCOC(=O)c1ccccc1S(=O)(=O)NC(=O)Nc1nc(OC)nc(OC)n1` [drawing 496], the response rating in experiment [1] amounted to 0; in [11], 1C; in experiment [3] it was 0; in experiment [4], 0; in [12], 2G; in experiment [5] it was 2H. The response rating is 0 in experiment [6], 0 in experiment [8], 0 in experiment [9] and 4G in [10].
